{"source": "patent US4237068A", "about": "“Primary aminoacylanilides” (priority 1978, dated 1980)", "key": {"[1]": {"conditions": "mouse, in vivo"}, "[2]": {"experiment": "Relative potency against chloroform induced fibrillation in mice, subcutaneous (Table IV)", "type": "in vivo", "conditions": "20 min, statistical mean (confidence limits)", "method": "(§1) The experiments on mice were performed according to a modification of the method described by J. W. Lawson, \"Antiarrhythmic activity of some isoquinoline derivatives determined by a rapid screening procedure in the mouse,\" J. Pharm. Exp. Therap. Vol. 160, pp. 22-31 (1968). This method is based upon the observation that when an unanesthetized, untreated mouse is exposed to chloroform vapor its respiration soon ceases and at that time both electrocardiographic and visual inspection reveal that the cardiac ventricles are fibrillating. If the mouse is treated appropriately with known antiarrhythmic agents prior to exposure to chloroform, the respiratory failure is not accompanied by ventricular fibrillation.\nThe procedure used was a modification of the method previously described. The modification involved using a standard time of 20 minutes for each test run and four different doses of the same drug. Route of administration was subcutaneous."}, "[3]": {"experiment": "Ventricular arrhythmias in unanesthetized dogs after coronary artery ligation (modified Harris method), 3-amino-2',6'-butyroxylidide (Table VI)", "type": "in vivo", "from_the_text": "(§2) Vol. 1, pp. 1318-1328 (1950). […] The electrocardiographic, cardiovascular and other drug effects were monitored.\nThe electrocardiographic, cardiovascular and other drug effects were monitored."}, "[4]": {"experiment": "Antifibrillatory effect in mice: protection against chloroform-induced ventricular fibrillation, oral (Table I)", "type": "in vivo, female Swiss albino mice (HAM/ICR)", "method": "as §1"}, "mice": {"system": "mice", "experiment": "Ataxia in mice just before CHCl3 challenge, oral (Table I)", "type": "in vivo", "conditions": "LD0.1 dose", "excerpt": "Immediately after cessation of respiration each mouse was removed from the beaker, its thorax was opened and its heart was examined for the presence of absence of ventricular fibrillation. The nature of the cardiac rhythm was then confirmed by electrocardiographic recordings. Whenever fibrillation was not evident, the heart was touched with forceps. The heart was considered as fibrillating if fine tremulous movements were present on the surface of the ventricle and persisted for at least 5 seconds after the thoracotomy or the mechanical stimulus. Ventricular fibrillation was considered absent in those animals in which coordinated ventricular activity was evident following such procedures."}, "[5]": {"type": "in vivo, dogs", "conditions": "for Overt toxicity: convulsions, onset / Overt toxicity: emesis / Overt toxicity: nystagmus / Overt toxicity: other / Overt toxicity: tremors / Overt toxicity: convulsions, duration: po", "from_the_text": "as §2"}, "[6]": {"experiment": "Response of unanesthetized dogs to intravenous infusion on first day after coronary artery ligation (Table III)", "method": "In this method the dogs were anesthetized, the heart was exposed, and the anterior descending branch of the left coronary artery was ligated in two stages. The thorax was closed and the dog was allowed to recover from the anesthesia. […] The electrocardiographic, cardiovascular and other drug effects were monitored.\nThe dosage schedule was: 1st hr.: 15 mg/kg/hr; 2nd hr.: 30 mg/kg/hr; 3rd hr.: 60 mg/kg/hr. Infusions were stopped at the first sign of toxicity other than emesis."}, "frog sciatic nerve": {"system": "frog sciatic nerve", "experiment": "In vitro local anesthetic effect on frog sciatic nerve", "conditions": "20 mM solution, after exposure for 96 min"}, "[7]": {"experiment": "Expected antiarrhythmic oral dosage in humans", "type": "in vivo"}, "[8]": {"conditions": "cited from earlier work"}, "[9]": {"conditions": "intravenous, first day after ligation"}, "[10]": {"conditions": "oral and intravenous doses, unanesthetized dogs"}, "[11]": {"conditions": "i.v. infusion, cumulative, one value per dog"}}, "note": "Read-outs that look alike come from different tables or passages of the source.", "data": [{"molecule": "CCNC(C)C(=O)Nc1c(C)cc(C)cc1C", "note": "(centres unmarked) [secondary amine]", "values": [{"measurement": "ataxia incidence", "setting": "[1]", "result": 100, "unit": "%"}, {"measurement": "convulsions incidence", "setting": "[1]", "result": 90, "unit": "%"}]}, {"molecule": "Cc1cccc(C)c1NC(=O)CC(C)N", "note": "(centres unmarked) [3-amino-2',6'-butyroxylidide]", "values": [{"measurement": "Relative potency (ED50 test compound/ED50 lidocaine)", "setting": "[2]", "result": "0.99 (0.60-1.9)"}, {"measurement": "adverse reactions", "setting": "[3]; dog, in vivo", "result": "unaccompanied by any discernible adverse reactions"}, {"measurement": "Toxicity: convulsions", "setting": "[3]; [9]", "result": "None"}, {"measurement": "Toxicity: deaths", "setting": "[3]; [9]", "result": "None"}, {"measurement": "suppression of the ventricular arrhythmias", "setting": "[3]; [10]", "result": "distinct suppression of the ventricular arrhythmias"}]}, {"molecule": "Cc1cccc(C)c1NC(=O)C(C)N", "note": "(racemic) [2-amino-2',6'-propionoxylidide]", "values": [{"measurement": "Proportion of mice in each group protected against fibrillation at LD0.1", "setting": "[4]; 20 min before CHCl3 challenge", "result": "9/10"}, {"measurement": "Proportion of mice in each group protected against fibrillation at LD0.1", "setting": "[4]; 40 min before CHCl3 challenge", "result": "9/10"}, {"measurement": "Proportion of mice in each group protected against fibrillation at LD0.1", "setting": "[4]; 80 min before CHCl3 challenge", "result": "10/10"}, {"measurement": "Proportion of mice in each group protected against fibrillation at LD0.1", "setting": "[4]; 160 min before CHCl3 challenge", "result": "9/10"}, {"measurement": "Proportion of mice in each group having ataxia just before CHCl3 challenge", "setting": "mice; 20 min", "result": "10/10"}, {"measurement": "Proportion of mice in each group having ataxia just before CHCl3 challenge", "setting": "mice; 40 min", "result": "10/10"}, {"measurement": "Proportion of mice in each group having ataxia just before CHCl3 challenge", "setting": "mice; 80 min", "result": "8/10"}, {"measurement": "Proportion of mice in each group having ataxia just before CHCl3 challenge", "setting": "mice; 160 min", "result": "5/10"}, {"measurement": "adverse reactions", "setting": "[5]; dog, in vivo", "result": "unaccompanied by any discernible adverse reactions"}, {"measurement": "Overt toxicity: convulsions, onset", "setting": "[5]; dog, in vivo, 50 mg/kg", "result": "None"}, {"measurement": "Overt toxicity: emesis", "setting": "[5]; dog, in vivo, 50 mg/kg", "result": "None"}, {"measurement": "Overt toxicity: nystagmus", "setting": "[5]; dog, in vivo, 50 mg/kg", "result": "None"}, {"measurement": "Overt toxicity: other", "setting": "[5]; dog, in vivo, 50 mg/kg", "result": "None"}, {"measurement": "Overt toxicity: tremors", "setting": "[5]; dog, in vivo, 50 mg/kg", "result": "None"}, {"measurement": "Overt toxicity: convulsions, onset", "setting": "[5]; dog, in vivo, 100 mg/kg", "result": "None"}, {"measurement": "Overt toxicity: emesis", "setting": "[5]; dog, in vivo, 100 mg/kg", "result": "None"}, {"measurement": "Overt toxicity: nystagmus", "setting": "[5]; dog, in vivo, 100 mg/kg", "result": "None"}, {"measurement": "Overt toxicity: other", "setting": "[5]; dog, in vivo, 100 mg/kg", "result": "None"}, {"measurement": "Overt toxicity: tremors", "setting": "[5]; dog, in vivo, 100 mg/kg", "result": "None"}, {"measurement": "Overt toxicity: convulsions, onset", "setting": "[5]; dog, in vivo, 150 mg/kg", "result": "None"}, {"measurement": "Overt toxicity: nystagmus", "setting": "[5]; dog, in vivo, 150 mg/kg", "result": "None"}, {"measurement": "Overt toxicity: other", "setting": "[5]; dog, in vivo, 150 mg/kg", "result": "None"}, {"measurement": "Overt toxicity: tremors", "setting": "[5]; dog, in vivo, 150 mg/kg", "result": "None"}, {"measurement": "Overt toxicity: convulsions, duration", "setting": "[5]; dog, in vivo, 200 mg/kg", "result": "> 3", "unit": "min"}, {"measurement": "Overt toxicity: nystagmus", "setting": "[5]; dog, in vivo, 200 mg/kg", "result": "None"}, {"measurement": "Overt toxicity: other", "setting": "[5]; dog, in vivo, 200 mg/kg", "result": "None"}, {"measurement": "Overt toxicity: convulsions, duration", "setting": "[5]; dog, in vivo, 300 mg/kg", "result": 17, "unit": "min"}, {"measurement": "Overt toxicity: convulsions, onset", "setting": "[5]; dog, in vivo, 300 mg/kg", "result": "None"}, {"measurement": "Overt toxicity: emesis", "setting": "[5]; dog, in vivo, 300 mg/kg", "result": "None"}, {"measurement": "Overt toxicity: nystagmus", "setting": "[5]; dog, in vivo, 300 mg/kg", "result": "None"}, {"measurement": "Overt toxicity: other", "setting": "[5]; dog, in vivo, 300 mg/kg", "result": "None"}, {"measurement": "Overt toxicity: tremors", "setting": "[5]; dog, in vivo, 300 mg/kg", "result": "None"}, {"measurement": "suppression of the ventricular arrhythmias", "setting": "[5]; [10]", "result": "distinct suppression of the ventricular arrhythmias"}, {"measurement": "Maximum antiarrhythmic activity, partial clearing, onset", "setting": "[5]; oral, cumul. dose 50 mg/kg as HCl, 50-95% reduction of abnormal ventricular beats", "result": "None"}, {"measurement": "Toxic doses (cumul.)", "setting": "[6]; [11]", "result": 81, "unit": "mg/kg"}, {"measurement": "Relative potency (ED50 test compound/ED50 lidocaine)", "setting": "[2]", "result": "0.33 (0.20-0.54)"}, {"measurement": "block of the action potential of the nerve", "setting": "frog sciatic nerve", "result": "does not block the action potential at all"}, {"measurement": "dosage that should be effective for humans", "setting": "[7]", "result": "about 6 grams/day"}, {"measurement": "convulsions incidence", "setting": "[1]; 251 mg/kg", "result": 34, "unit": "%"}]}, {"molecule": "C=C[C@H]1C[N@@]2CC[C@H]1C[C@@H]2[C@@H](O)c1ccnc2ccc(OC)cc12", "note": "[QUINIDINE]", "values": [{"measurement": "Proportion of mice in each group protected against fibrillation at LD0.1", "setting": "[4]; 20 min before CHCl3 challenge", "result": "10/10"}, {"measurement": "Proportion of mice in each group protected against fibrillation at LD0.1", "setting": "[4]; 40 min before CHCl3 challenge", "result": "9/9"}, {"measurement": "Proportion of mice in each group protected against fibrillation at LD0.1", "setting": "[4]; 80 min before CHCl3 challenge", "result": "9/9"}, {"measurement": "Proportion of mice in each group having ataxia just before CHCl3 challenge", "setting": "mice; 20 min", "result": "0/10"}, {"measurement": "Proportion of mice in each group having ataxia just before CHCl3 challenge", "setting": "mice; 40 min", "result": "2/10"}, {"measurement": "death", "setting": "mice; 40 min group", "result": 1, "unit": "death"}, {"measurement": "death", "setting": "mice; 80 min group", "result": 1, "unit": "death"}]}, {"molecule": "CCN(CC)CC(=O)Nc1c(C)cccc1C", "note": "[lidocaine, 2-diethylamino-2',6'-acetoxylidide]", "values": [{"measurement": "Proportion of mice in each group protected against fibrillation at LD0.1", "setting": "[4]; 10 min before CHCl3 challenge", "result": "9/10"}, {"measurement": "Proportion of mice in each group protected against fibrillation at LD0.1", "setting": "[4]; 20 min before CHCl3 challenge", "result": "10/10"}, {"measurement": "Proportion of mice in each group protected against fibrillation at LD0.1", "setting": "[4]; 40 min before CHCl3 challenge", "result": "7/10"}, {"measurement": "Proportion of mice in each group protected against fibrillation at LD0.1", "setting": "[4]; 80 min before CHCl3 challenge", "result": "0/10"}, {"measurement": "Proportion of mice in each group having ataxia just before CHCl3 challenge", "setting": "mice; 10 min", "result": "0/10"}, {"measurement": "Proportion of mice in each group having ataxia just before CHCl3 challenge", "setting": "mice; 20 min", "result": "9/10"}, {"measurement": "Proportion of mice in each group having ataxia just before CHCl3 challenge", "setting": "mice; 40 min", "result": "0/10"}, {"measurement": "Proportion of mice in each group having ataxia just before CHCl3 challenge", "setting": "mice; 80 min", "result": "0/10"}, {"measurement": "minimal effective dose", "setting": "[6]; Canis lupus familiaris, iv, read-out: Antiarrhythmic doses (cumul.), i.v. infusion, cumulative, one value per dog", "result": 36, "unit": "mg/kg"}, {"measurement": "Antiarrhythmic doses (cumul.)", "setting": "[6]; [11]", "result": 55, "unit": "mg/kg"}, {"measurement": "Number of dogs showing antiarrhythmic effect", "setting": "[6]; i.v. infusion, dogs tested: lidocaine 2, 2-amino-2',6'-propionoxylidide 1, abnormal beats < 5% of total", "result": 2}, {"measurement": "Duration of antiarrhythmic effect", "setting": "[6]; i.v. infusion, return of 50% of suppressed abnormal ventricular beats, one value per dog", "result": 5, "unit": "min"}, {"measurement": "duration of blood levels", "setting": "[8]; lidocaine", "result": "fairly short"}, {"measurement": "oral effectiveness", "setting": "[8]; oral, due to low levels of the drug in the blood", "result": "not orally effective"}, {"measurement": "loss of the drug after oral administration", "setting": "[8]; oral, probably due to the functions of the liver", "result": "pronounced loss of the drug"}]}, {"molecule": "CCN(CC)CCNC(=O)c1ccc(N)cc1", "note": "[PROCAINAMIDE]", "values": [{"measurement": "Proportion of mice in each group protected against fibrillation at LD0.1", "setting": "[4]; 5 min before CHCl3 challenge", "result": "0/10"}, {"measurement": "Proportion of mice in each group protected against fibrillation at LD0.1", "setting": "[4]; 10 min before CHCl3 challenge", "result": "1/10"}, {"measurement": "Proportion of mice in each group protected against fibrillation at LD0.1", "setting": "[4]; 20 min before CHCl3 challenge", "result": "0/10"}, {"measurement": "Proportion of mice in each group having ataxia just before CHCl3 challenge", "setting": "mice; 5 min", "result": "0/10"}, {"measurement": "Proportion of mice in each group having ataxia just before CHCl3 challenge", "setting": "mice; 10 min", "result": "0/10"}, {"measurement": "Proportion of mice in each group having ataxia just before CHCl3 challenge", "setting": "mice; 20 min", "result": "0/10"}]}]}
